This note sets out measurements from ChEMBL document CHEMBL5726785, “TrkA kinase inhibitors, compositions and methods thereof” (2018).

This assay has as its target High affinity nerve growth factor receptor (Homo sapiens, UniProt P04629). Description: TrkA Receptor : TrkA functional activity was measured using a DiscoverX PathHunter assay. In this assay, U2OS cells are express TrkA receptor as a fusion with the weakly complementing fragment of B-galactosidase, which DiscoverX calls “Prolink (PK)”; additionally, Shc1 is fused with a larger fragment, which is called “Enzyme Acceptor (EA)”. Activation of the TrkA receptor, upon NGF addition, results in the kinase domain being phosphorylated, resulting in subsequent recruitment of Shc1-EA protein. That recruitment results in an active B-galactosidase enzyme that is detected by addition of a chemiluminescent substrate.All reagents were purchased from DiscoverX, except for the receptor agonists (NGF, BDNF, NT3) which were purchased from Peprotech. Cells were expanded and frozen into cryovials (TrkA p75 @ passage 13, 1.5×10^7 cells/vial; TrkC p75 @ passage 11, 1.5×10^7 cells/vial in InVitrogen Recovery Cell Freezing media), and stored in the vapor phase of liquid nitrogen, and thawed immediately before use. Thawed cells were added to a 384-well plate (BD Falcon 384-well white/clear, TC surface 120 uL assay plates (353963), 20 uL of 0.375e6 cells/mL=>7500 cells/well), and allowed to incubate overnight. […].

Chain of High affinity nerve growth factor receptor (P04629 whole entry, the tested form may be a part): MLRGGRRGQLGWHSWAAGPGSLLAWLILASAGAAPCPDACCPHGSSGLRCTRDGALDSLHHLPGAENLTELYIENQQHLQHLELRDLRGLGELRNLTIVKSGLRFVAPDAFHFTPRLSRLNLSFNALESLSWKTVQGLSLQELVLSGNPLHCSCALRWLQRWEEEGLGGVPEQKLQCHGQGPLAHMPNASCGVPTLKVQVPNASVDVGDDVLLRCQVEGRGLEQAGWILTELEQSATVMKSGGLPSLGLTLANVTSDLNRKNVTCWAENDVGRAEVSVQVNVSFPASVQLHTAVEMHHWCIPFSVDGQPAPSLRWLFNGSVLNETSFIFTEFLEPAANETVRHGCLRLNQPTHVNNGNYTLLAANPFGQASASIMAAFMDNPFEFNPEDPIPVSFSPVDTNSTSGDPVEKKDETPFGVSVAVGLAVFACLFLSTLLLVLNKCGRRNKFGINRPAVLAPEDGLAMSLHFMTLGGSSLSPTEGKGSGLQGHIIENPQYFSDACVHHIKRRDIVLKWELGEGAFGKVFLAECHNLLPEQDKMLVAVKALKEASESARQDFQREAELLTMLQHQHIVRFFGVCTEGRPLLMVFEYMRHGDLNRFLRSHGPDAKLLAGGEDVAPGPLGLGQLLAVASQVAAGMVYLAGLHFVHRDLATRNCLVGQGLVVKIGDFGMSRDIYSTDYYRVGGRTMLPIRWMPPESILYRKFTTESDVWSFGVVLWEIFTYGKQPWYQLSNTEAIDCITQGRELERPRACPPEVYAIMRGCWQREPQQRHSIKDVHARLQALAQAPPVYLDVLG

In general, IC50 refers to the concentration that inhibits the measured activity by half. Low readings indicate higher potency, high ones lower potency. In turn, `Cc1ncc(NC(=O)Nc2c(-c3ccccc3)[nH]c3ccccc23)c(-c2ccccc2)n1` registered an IC50 of 570 nM.
